Reference: patent EP4803630A1, “CELL FOR IDENTIFYING MAIT CELL LIGAND, AND METHOD FOR SCREENING MAIT CELL LIGAND USING SAID CELL” (The University of Osaka, priority 2023, dated 2025)
“Also recorded” adds a separate entry of the source.

Key:
TCR of MAIT cells = assay: co-expression reporter cell assay: NFAT-GFP expression on activation of MAIT TCR; format: cell-based; conditions: 37°C, 6-20 hr, GFP by flow cytometry
From the text: (§1) MAIT TCR genes and MR1 molecules genes were synthesized from mouse (Tiloy et al, J Exp Med. 1999) or human (4L4T, Protein Data Bank) and inserted into retroviral vectors (pMX-IRES-ratCD2, pMX-IRES-humanCD8), respectively. These plasmids were co-introduced into Phoenix packaging cells by using PEI MAX (Polysciences). […] MAIT TCR and MR1 co-expressing T cells (hereinafter also referred to as "co-expression reporter cells") were selected using antimouse TCRβ (H57-597), anti-human CD3 (HIT3a), and anti-human/mouse/rat MR1 (26.5) antibodies.
(§2) The validation experiment evaluated GFP expression and MR1 molecule surface expression 6 hr after stimulation of co-expression reporter cells with vehicle control, 5-OP-RU, and Ac-6-FP. GFP was evaluated by flow cytometry. MR1 molecule surface expression was represented by the MFI value of the stimulated cells.
(§3) In the above-mentioned screening, to stimulate "co-expression reporter cells," tissue extract samples and synthetic compounds were dissolved in water and added to each well of a 96-well plate in the absence of methylglyoxal. Some water-insoluble samples were dissolved in ethanol or chloroform/methanol (2:1, vol/vol) and coated onto the plates. "Co-expression reporter cells" (1-3×10^4 cells/100 µL/well) were cultured at 37°C for 6-20 hr, and the expression of GFP and MR1 molecules was analyzed by flow cytometry.

MR1 molecule = assay: co-expression reporter cell assay: MR1 surface expression by flow cytometry; format: cell-based; conditions: co-expression reporter cells, 37°C, 6-20 hr, MFI by flow cytometry
Method: These plasmids were co-introduced into Phoenix packaging cells by using PEI MAX (Polysciences).
as §2, §3

[1] = system: Human peripheral blood mononuclear cells (PBMCs); assay: sc-TCR-RNA-seq analysis of stimulated PBMCs; format: cell-based; conditions: PBMCs stimulated for several days; for gene expression signature (induced genes): in contrast to 5-OP-RU; for TCR expressed by surviving MAIT cells: TRAV1-2-TRAJ33/12/20:TRBV6-4/6-1/20-1
Method: Human peripheral blood mononuclear cells (PBMCs) were stimulated with CA7S and CA3S for several days, and then sc-TCR-RNA-seq analysis was performed.

[2] = system: MAIT TCRs derived from mouse (m); assay: reporter cell assay with mouse-derived MAIT TCR, mouse or human MR1; format: cell-based; conditions: regardless of the species of the MR1 molecule
From the text: as §1
as §3, with “cytometry. The same procedure was performed in the subsequent Examples. • (2) To determine the chemical structure of the activation molecule contained in fraction #84, this fraction was further purified by hydrophilic interaction chromatography (HILIC), and a single fraction (named #84-45) was recovered. […]” for “cytometry.”

[3] = system: MAIT TCRs derived from human (h); assay: reporter cell assay with human-derived MAIT TCR, mouse or human MR1; format: cell-based; conditions: regardless of the species of the MR1 molecule
From the text: as §1
as §3, with “cytometry. The same procedure was performed in the subsequent Examples. • (2) To determine the chemical structure of the activation molecule contained in fraction #84, this fraction was further purified by hydrophilic interaction chromatography (HILIC), and a single fraction (named #84-45) was recovered. […]” for “cytometry.”

[4] = system: MAIT cells in MR1-5-OP-RU tetramer-enriched thymocytes; assay: flow cytometry of thymic MAIT cells after administration to Sult2a-deficient mice; format: in vivo, mouse; conditions: 2-4 week old Sult2a-deficient mice administered with CA7S versus not administered
Method: The expression of MAIT cells in MR1-5-OP-RU tetramer-enriched thymocytes was analyzed by flow cytometry in 2-4 week old wild-type mice, Sult2a-deficient mice administered with CA7S, and Sult2a-deficient mice not administered with CA7S.
The data were obtained from experiments using three or more mice per group. *P<0.05, **P<0.01, P***<0.005, one-way ANOVA and Tukey's multiple comparison test were used.

`CC(=O)C=Nc1c(NC[C@H](O)[C@H](O)[C@H](O)CO)[nH]c(=O)[nH]c1=O` [Analog 5-OP-RU, 5-(2-Oxopropylidene-amino)-6-D-ribitylaminouracil, reference compound] was tested, and the “activation of the TCR of MAIT cells (GFP expression)” value (“activation of the TCR of MAIT cells” for short) (TCR of MAIT cells) was “dose-dependently enhanced GFP expression”.
`C[C@H](CCC(=O)O)[C@H]1CC[C@H]2[C@@H]3[C@H](O)C[C@@H]4C[C@H](OS(=O)(=O)O)CC[C@]4(C)[C@H]3C[C@H](O)[C@]12C` [CA3S, cholic acid 3-sulfate] was tested, and the “activation of the TCR of MAIT cells” value (TCR of MAIT cells) was “activated MAIT reporter cells in the presence of MR1 molecules”, the “expression of MR1 molecules on the T cell surface” value (“expression of MR1 molecules” below) (MR1 molecule) was “similarly increased the expression of the MR1 molecule on the T cell surface” and the “gene expression signature (induced genes)” value [1] was “induced genes involved in homeostasis maintenance, such as IL7R, KLF2, and TCF7”. The “TCR expressed by surviving MAIT cells” value [1] was “expressed a representative MAIT TCR”.
In the case of `C[C@H](CCC(=O)O)[C@H]1CC[C@H]2[C@@H]3[C@H](OS(=O)(=O)O)C[C@@H]4C[C@H](O)CC[C@]4(C)[C@H]3C[C@H](O)[C@]12C` [CA7S, cholic acid 7-sulfate], the “activation of the TCR of MAIT cells” value (TCR of MAIT cells) is reported as “activated reporter cells expressing MAIT TCR; also recorded: weak agonist”, the “expression of MR1 molecules” value (MR1 molecule) is reported as “similarly increased the expression of the MR1 molecule on the T cell surface” and the “activation of MAIT TCR derived from mouse (m)” value [2] is reported as “activated”. The “activation of MAIT TCR derived from human (h)” value [3] was “activated”, the “gene expression signature (induced genes)” value [1] was “induced genes involved in homeostasis maintenance, such as IL7R, KLF2, and TCF7” and the “TCR expressed by surviving MAIT cells” value [1] was “expressed a representative MAIT TCR”. The “MAIT cells in thymocytes” value [4] was “restored MAIT cells”.
For `C[C@H](CCC(=O)O)[C@H]1CC[C@H]2[C@@H]3[C@H](O)C[C@@H]4C[C@H](O)CC[C@]4(C)[C@H]3C[C@H](OS(=O)(=O)O)[C@]12C` [CA12S], the “activation of the TCR of MAIT cells” value (TCR of MAIT cells) was “did not” and the “expression of MR1 molecules” value (MR1 molecule) was “similarly increased the expression of the MR1 molecule on the T cell surface”.
For `C[C@H](CCC(=O)O)[C@H]1CC[C@H]2[C@@H]3[C@H](O)C[C@@H]4C[C@H](O)CC[C@]4(C)[C@H]3C[C@H](O)[C@]12C` [CA, cholic acid, reference compound], the “activation of the TCR of MAIT cells” value (TCR of MAIT cells) was “did not activate” and the “expression of MR1 molecules” value (MR1 molecule) was “did not activate”.
In the case of `C[C@H](CCC(=O)O)[C@H]1CC[C@H]2[C@@H]3CC[C@@H]4C[C@H](OS(=O)(=O)O)CC[C@]4(C)[C@H]3C[C@H](O)[C@]12C` [DCA3S, deoxy-CA3S, reference compound], the “activation of the TCR of MAIT cells” value (TCR of MAIT cells) is reported as “did not show activity in reporter cells”.
For `C[C@H](CCC(=O)O)[C@H]1CC[C@H]2[C@@H]3CC[C@@H]4C[C@H](OS(=O)(=O)O)CC[C@]4(C)[C@H]3CC[C@]12C` [LCA3S, litho-CA3S, reference compound], the “activation of the TCR of MAIT cells” value (TCR of MAIT cells) was “did not show activity in reporter cells”.
`C[C@H](CCC(=O)NCCS(=O)(=O)O)[C@H]1CC[C@H]2[C@@H]3[C@H](O)C[C@@H]4C[C@H](OS(=O)(=O)O)CC[C@]4(C)[C@H]3C[C@H](O)[C@]12C` [TCA3S] was tested, and the “activation of the TCR of MAIT cells” value (TCR of MAIT cells) was “showed no activity” and the “expression of MR1 molecules” value (MR1 molecule) was “showed no activity”.
For `C[C@H](CCC(=O)NCCS(=O)(=O)O)[C@H]1CC[C@H]2[C@@H]3[C@H](OS(=O)(=O)O)C[C@@H]4C[C@H](O)CC[C@]4(C)[C@H]3C[C@H](O)[C@]12C` [TCA7S], the “activation of the TCR of MAIT cells” value (TCR of MAIT cells) was “showed no activity” and the “expression of MR1 molecules” value (MR1 molecule) was “showed no activity”.
With `C[C@H](CCC(=O)NCCS(=O)(=O)O)[C@H]1CC[C@H]2[C@@H]3CC[C@@H]4C[C@H](OS(=O)(=O)O)CC[C@]4(C)[C@H]3CC[C@]12C` [TLCA3S, taurolitho-CA3S, reference compound] the “activation of the TCR of MAIT cells” value (TCR of MAIT cells) was “did not show activity in reporter cells”.
